Experimental data from patent US12077508B2, “Inhibitors of the Notch transcriptional activation complex kinase (“NACK”) and methods for use of the same” (UNIVERSITY OF MIAMI, priority 2018, dated 2024).
Entries after “also recorded” stand apart in the source; their conditions may differ. Like-named read-outs stand apart in the source and are kept apart here.

Assays:
[1] = molecular target: T1, NACK (Mus musculus, UniProt Q571I4); assay: Surface plasmon resonance (SPR) binding to GST tagged NACK
T1 sequence (Q571I4 1-1373): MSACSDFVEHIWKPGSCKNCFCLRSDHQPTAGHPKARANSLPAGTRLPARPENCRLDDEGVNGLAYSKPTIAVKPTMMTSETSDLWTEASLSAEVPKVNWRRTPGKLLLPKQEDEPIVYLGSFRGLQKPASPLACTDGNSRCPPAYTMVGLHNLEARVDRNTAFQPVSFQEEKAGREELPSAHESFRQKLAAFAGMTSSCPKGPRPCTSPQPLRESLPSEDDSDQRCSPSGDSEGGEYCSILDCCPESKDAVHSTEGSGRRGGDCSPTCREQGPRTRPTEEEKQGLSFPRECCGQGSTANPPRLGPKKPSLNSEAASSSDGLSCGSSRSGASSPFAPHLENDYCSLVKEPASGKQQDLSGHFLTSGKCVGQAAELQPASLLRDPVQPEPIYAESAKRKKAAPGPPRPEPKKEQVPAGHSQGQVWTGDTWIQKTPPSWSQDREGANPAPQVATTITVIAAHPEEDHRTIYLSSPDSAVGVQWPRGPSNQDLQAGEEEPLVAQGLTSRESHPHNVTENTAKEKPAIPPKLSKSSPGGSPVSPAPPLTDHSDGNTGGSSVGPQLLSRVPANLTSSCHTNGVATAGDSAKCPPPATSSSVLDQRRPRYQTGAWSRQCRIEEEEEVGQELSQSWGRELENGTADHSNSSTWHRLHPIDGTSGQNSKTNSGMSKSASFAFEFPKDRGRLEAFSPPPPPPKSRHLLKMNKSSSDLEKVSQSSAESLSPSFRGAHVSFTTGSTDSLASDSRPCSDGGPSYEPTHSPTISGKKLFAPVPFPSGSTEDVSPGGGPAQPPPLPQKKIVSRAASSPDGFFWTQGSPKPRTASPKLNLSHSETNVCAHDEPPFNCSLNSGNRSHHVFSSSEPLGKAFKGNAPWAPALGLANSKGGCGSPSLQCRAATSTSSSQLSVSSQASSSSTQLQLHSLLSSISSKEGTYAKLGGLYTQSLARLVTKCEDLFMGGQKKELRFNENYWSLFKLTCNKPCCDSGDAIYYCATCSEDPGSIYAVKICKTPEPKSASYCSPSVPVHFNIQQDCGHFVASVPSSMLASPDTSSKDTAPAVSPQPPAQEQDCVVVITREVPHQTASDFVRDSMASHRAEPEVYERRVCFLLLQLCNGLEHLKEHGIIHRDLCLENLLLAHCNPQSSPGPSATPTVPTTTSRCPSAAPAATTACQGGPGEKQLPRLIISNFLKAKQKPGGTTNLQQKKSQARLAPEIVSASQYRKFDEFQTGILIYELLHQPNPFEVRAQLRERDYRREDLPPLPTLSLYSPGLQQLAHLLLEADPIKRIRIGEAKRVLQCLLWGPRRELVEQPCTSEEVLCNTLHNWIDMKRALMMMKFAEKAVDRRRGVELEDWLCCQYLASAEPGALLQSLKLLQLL
Description: The interaction between inhibitor Z271-0326 and target NACK was characterized using surface plasmon resonance (SPR). For this purpose, GST tagged NACK was captured by a GST antibody that was previously immobilized onto the surface of the chip through standard amide coupling. The dissociation constants associated with binding of the compounds to NACK was determined using the equilibrium approach, which consists of plotting the equilibrium response (Req) as a function of concentration of the compound and fitting the data to a 1:1 binding model.
A GST capture kit (GE Healthcare) were utilized to covalently immobilize an anti-GST antibody, provided in the kit, to the sensor chip surface (CM5 chip, GE Healthcare) by following the manufacturer's instructions. Capture were performed by injecting GST-NACK (1 μg/μL) over the immobilized anti-GST antibody in Hepes buffer (10 mM Hepes, pH 7.5, 150 mM NaCl, 3 mM EDTA, 0.0005% NP-40) for 7 min at 10 μL/min. A reference flow cell was prepared by capturing GST following the procedure described above. […] Experiments were performed on a Biacore T200 instrument (GE Healthcare) at 25° C. Small molecule inhibitors binding to NACK were performed in 50 mM Tris buffer, pH 7.5, containing 150 mM NaCl, 10 mM MgCl2 and 5% DMSO (running buffer). The SPR signal arising from the sample was corrected for its respective control containing DMSO. Data visualization and analysis was performed using Biacore T200 software (GE Healthcare) and Origin 8.0 (OriginLab).

[2] = system: Notch target genes; assay: RT-qPCR of Notch target genes in Notch/NACK-dependent cells; format: cell-based, human; conditions: for down regulation of Notch target genes (q-PCR profile): compared to Z271-0326, FIGS. 13A-13D
Description: To assess the effect of NACK inhibitor on Notch target gene transcription, Notch/NACK-dependent cell lines were treated with NACK inhibitors. The cells were also treated with DAPT as a positive control. DMSO treated cells served as a vehicle control for comparison. Gene expression was normalized to HPRT, and TBP served as a negative control to validate normalization.
Reverse transcription and qPCR analysis were performed as described previously (See Weaver et al., Cancer Research 74, 4741-4751 (2014)). Gene expression was normalized to the TATA-binding protein (“TBP”) gene. As a control, hypoxanthine phosphoribosyltransferase 1 (“HPRT”) gene expression was also monitored.

[3] = system: OE33 cell line; assay: Colony formation assay in OE33 cells; format: cell-based, human; conditions: for EC50: Homo sapiens, read-out: EC50 colony formation titration assay; for OE33 colony formation: cells treated every other day, FIGS. 5B, 5C
Description: (§1) A cell based colony formation assay was used in these experiments. Normal mouse mammary epithelia HC11 cells have little or no endogenous NACK expression, and NACK knockdown had no effect on the growth of HC11 cells (FIG. 5A, lower panel). […] Knockdown of NACK was confirmed by western blot and qPCR (FIGS. 1D and 1E). […] Therefore, compounds that affect OE33 colony formation but not HC11 were desired. In order to screen the compounds, cells were treated with test compounds every other day.
(§2) Colony formation assay was utilized to determine the effect of small molecule inhibitors on cell proliferation. In general, different cell lines (NACK dependent or independent) will be seeded in 6-well plates at a density of 2000 cells per well and allowed to attach overnight. Inhibitor treatment commenced 24 hours post seeding, and the media containing inhibitor was changed every 48 hours thereafter. After 168 hours, colonies were be stained with Crystal Violet (Millipore) and counted.

[4] = system: HC11 cells; assay: Colony formation assay in HC11 cells; format: cell-based, mouse; conditions: Notch/NACK independent cell line; FIG. 5B
Description: as §1, §2

[5] = molecular target: T2, NACK binding to the Notch transcription complex (Mus musculus, UniProt Q571I4); assay: CSL-DNA affinity precipitation (CSL-DAP) assay; format: cell-based; conditions: 293T cells transfected with N1ICD, Maml1, NACK; 2 hours treatment; FIG. 6A
T2 construct: expressed in transfected cells; host or cells: 293T
T2 sequence (Q571I4 1-1373): T1 sequence (Q571I4 1-1373)
Description: To determine the specificity of hit-to-lead compounds targeting NACK activity, it was evaluated whether iNACK can block NACK binding to the Notch complex by conducting CSL-DNA affinity precipitation (CSL-DAP) assay. […] In the CSL-DAP assay, 293T cells were co-transfected with N1^ICD, Maml1 and NACK. Transfections were performed using LipoJet transfection reagent (SL100468, SignaGen Laboratories) according to the manufacturer recommended protocol. After two days of transfection, cells were treated with compounds for 2 hours prior collecting the cell lysate. Cell lysates were incubated with DNA streptavidin beads. Proteins that bound to the beads were analyzed by Western blot.
Western blot was performed as described previously (See Weaver et al., Cancer Research 74, 4741-4751 (2014)). Primary antibodies were α-NACK (1:1,000; against aa209-287 of NACK and affinity purified), α-CSL (1:1,000; generated against full-length CSL and affinity purified), α-Maml1 (1:5,000; Cell Signaling Technology), α-cleaved-Notch1 (1:1,000; Cell Signaling Technology).

[6] = system: OE33 spheres; assay: Tumor sphere formation assay in OE33; format: cell-based, human; conditions: OE33; FIG. 7A
Description: In order to assess the effect of hit to lead compounds on the proliferation of stem cell like population of Notch/NACK dependent cells, the primary tumor spheres were treated with NACK inhibitor and allow the cells to be propagated as secondary cultures. To obtain tumor spheres, cells were cultured in DMEM/F12 with 2% B-27 serum-free supplement (17604-044; Invitrogen), 20 ng/mL epidermal growth factor (EGF; PHG0311L; Invitrogen), and 20 ng/mL basic fibroblastic growth factor (bFGF; PHG0266; Invitrogen) for 14 days. Resulting tumor spheres were examined and counted under the microscope. Furthermore, the tumor spheres were collected for further RT-qPCR analysis to test the effect of hit to lead compounds on the stem like target genes.

SMILES: Nc1ncnc2c1ncn2[C@@H]1O[C@H](COP(=O)(O)OP(=O)(O)NP(=O)(O)O)[C@@H](O)[C@H]1O [AMP-PNP]
- Kd ([1]; SPR, FIG. 4C, read-out: binding constant): ~1500 nM
- Kd ([1]; equilibrium approach, 1:1 binding model, 25° C., FIG. 10A, read-out: KD): 1500 ± 500 nM

SMILES: CCN(CC)C(=O)c1cnn2ccc(C3CCN(S(=O)(=O)c4ccc(NC(=O)OC)cc4)CC3)cc12 [Compound 7C, methyl N-[4-({4-[3-(diethylcarbamoyl)pyrazolo[1,5-a]pyridin-5-yl]piperidinyl}sulfonyl)phenyl]carbamate]
- expression of oncogenes cMYC, CCND1, HES1 (Q-PCR) ([2]; with respect to DMSO and Z271-0326, FIG. 16): downregulate oncogenes cMYC, CCND1, and HES1

SMILES: CC(=O)Nc1ccc(S(=O)(=O)N2CCC(c3ccn4ncc(C(=O)N5CCCC5)c4c3)CC2)cc1 [Compound 7H, N-[4-({4-[3-(pyrrolidine-1-carbonyl)pyrazolo[1,5-a]pyridin-5-yl]piperidin-1-yl}sulfonyl)phenyl]acetamide]
- down regulation of Notch target genes (q-PCR profile) [2]: performed the best in down regulating Notch target genes, even better than Z271-0326

SMILES: CC(=O)Nc1ccc(S(=O)(=O)N2CCC(c3ccn4ncc(C(=O)N5CCCCC5)c4c3)CC2)cc1 [Compound 7M, N-[4-({4-[3-(piperidine-1-carbonyl)pyrazolo[1,5-a]pyridin-5-yl]piperidin-1-yl}sulfonyl)phenyl]acetamide]
- down regulation of Notch target genes (q-PCR profile) [2]: can also down regulate Notch target genes, but not as good as compound 7H

SMILES: CC(C)(C)OC(=O)Nc1ccc(S(=O)(=O)N2CCC(c3ccn4ncc(C(=O)N5CCCC5)c4c3)CC2)cc1 [Compound 71B, tert-butyl N-[4-({4-[3-(pyrrolidine-1-carbonyl)pyrazolo[1,5-a]pyridin-5-yl]piperidin-1-yl}sulfonyl)phenyl]carbamate]
- EC50 ([3]; OE33, OE33 cell line, FIG. 18): 608 nM

SMILES: CC(=O)Nc1ccc(S(=O)(=O)N2CCC(c3ccn4ncc(C(=O)N5CCC5)c4c3)CC2)cc1 [Compound 71C, N-[4-({4-[3-(azetidine-1-carbonyl)pyrazolo[1,5-a]pyridin-5-yl]piperidin-1-yl}sulfonyl)phenyl]acetamide]
- EC50 ([3]; OE33, OE33 cell line, FIG. 18): 330 nM

SMILES: N#Cc1cccc(NC(=O)N2CCC(c3ccn4ncc(C(=O)N5CCCCC5)c4c3)CC2)c1 [Compound Z270-0137]
- OE33 colony formation [3]: effectively inhibit OE33 colony formation
- HC11 colony formation / viability [4]: but not HC11 cell

SMILES: O=C(c1cnn2ccc(C3CCN(S(=O)(=O)Cc4ccccc4)CC3)cc12)N1CCCCC1 [Compound Z271-0132]
- selectivity between OE33 and HC11 cell lines ([3]; colony formation): displays no selectivity between OE33 and HC11 cell lines
- inhibition of NACK binding to the Notch transcription complex [5]: dramatically inhibit NACK binding to the NOTCH transcription complex; also recorded: blocks binding of NACK to the ternary complex

SMILES: CC1CCN(C(=O)c2cnn3ccc(C4CCN(S(=O)(=O)c5ccccc5)CC4)cc23)CC1 [Compound Z271-0191]
- EC50 ([3]; OE33, estimated, FIG. 6C): 3740 nM
- OE33 colony formation [3]: effectively inhibit OE33 colony formation
- HC11 colony formation / viability [4]: but not HC11 cell
- inhibition of NACK binding to the Notch transcription complex [5]: dramatically inhibit NACK binding to the NOTCH transcription complex
- mRNA levels of Notch target genes Hes1 and Notch3 ([2]; OE33, FIG. 6B): decrease the mRNA levels of Notch target genes Hes1 and Notch3
- secondary sphere formation [6]: less effective compared to Z271-0326
